From patent publication US12440467B2, “Treatment and prevention of infections using vegetable oil-derived polyols” (priority 2021, dated 2025)

Target: T1, CD4-gp120 complex (Human immunodeficiency virus type 1 group M subtype B, UniProt P04578)
T1 construct: recombinant gp120 (5 μg, Sigma-Aldrich); purchased Sigma-Aldrich (gp120); R&D Systems (CD4)
Experiment: Immunoprecipitation / Western blot of CD4-gp120 complex formation
Assay type: binding, HIV
Details: increasing concentration, Polyol:CD4-gp120 1:1000, 1:100, 1:10; polyol alone
Method: Immunoprecipitation studies conducted in the presence or absence of the linseed oil-derived polyol were performed to evaluate the impact of the polyol on the formation of the CD4-gp120 complex. A commercially available immunoprecipitation kit consisting of protein G-coated agarose beads (Invitrogen) was used, and immunoprecipitations were conducted according to the manufacturer's protocol. Briefly, the gp120 antibody (5 μg, Sigma-Aldrich) was bound to the protein G-coated agarose beads (50 μl) by placing the antibody and protein G agarose beads in 1.5 ml Eppendorf centrifuge tubes and incubated at room temperature for 10 minutes with rotation. The tubes were placed on the magnet (Life Technologies) and the supernatant was removed. […] The samples were heated for 5 minutes at 95° C., then placed on the magnet, the supernatants were collected and analyzed via western blot. […]
A standard western blot technique was used to evaluate the impact of the polyol on CD4-gp120 complex formation. […] Protein bands on the membrane were detected by chemiluminescence (Femto, ThermoFisher) and imaged on X-ray film (ThermoFisher). The blotted protein was quantified using the Image J software to measure the density, and the values were normalized to an untreated sample.
The inhibitory effect of the linseed oil-derived polyol on the formation of CD4 and […] complex was evaluated with immunoprecipitation (IP). […]

Question: How did the “effect on CD4-gp120 complex formation (gp120 bands)” value turn out when `CCC(O)C(O)CC(O)C(O)CC=CCCCCCCCC(=O)OC` (stereo not shown) [linseed oil-derived polyol] was run?
Answer: Its value is “reduced the CD4-gp120 complex formation”.
